According to US20230118577A1, “NEUROACTIVE STEROIDS AND PHARMACEUTICAL COMPOSITION CONTAINING THE SAME” (Brii Biosciences, Inc., priority 2020, published 2023):
pEC50: −log10 of the molar value. Read-outs that look alike come from different tables or passages of the source.

Key:
GABAA α1β2γ2 = target: T1, GABAA α1β2γ2 (Homo sapiens, UniProt P14867+P47870); assay: Automated patch clamp electrophysiology (SyncroPatch), PAM mode, GABAA α1β2γ2 cell line; format: cell-based; details: for Emax: maximum fold increase in current relative to Allopregnanolone, GABA EC20 14 μM, read-out: GABAA α1β2γ2 PAM % Emax (to Allo)
T1 construct: expressed in transfected cells; host or cells: HEK293 expressing the Tetracycline repressor protein
T1 sequence (P14867 28-456): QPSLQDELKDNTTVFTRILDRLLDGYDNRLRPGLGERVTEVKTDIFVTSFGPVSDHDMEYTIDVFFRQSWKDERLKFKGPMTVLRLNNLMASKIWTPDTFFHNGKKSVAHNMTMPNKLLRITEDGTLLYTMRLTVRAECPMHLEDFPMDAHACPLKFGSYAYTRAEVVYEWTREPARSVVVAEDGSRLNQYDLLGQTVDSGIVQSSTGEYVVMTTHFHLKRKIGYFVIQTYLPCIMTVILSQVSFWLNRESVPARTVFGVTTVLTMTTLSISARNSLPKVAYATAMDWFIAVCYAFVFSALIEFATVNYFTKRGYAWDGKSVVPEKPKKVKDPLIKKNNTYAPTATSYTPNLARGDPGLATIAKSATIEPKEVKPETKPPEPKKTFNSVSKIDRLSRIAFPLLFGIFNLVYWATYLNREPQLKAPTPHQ
T1 sequence (P47870 25-512 limits assumed): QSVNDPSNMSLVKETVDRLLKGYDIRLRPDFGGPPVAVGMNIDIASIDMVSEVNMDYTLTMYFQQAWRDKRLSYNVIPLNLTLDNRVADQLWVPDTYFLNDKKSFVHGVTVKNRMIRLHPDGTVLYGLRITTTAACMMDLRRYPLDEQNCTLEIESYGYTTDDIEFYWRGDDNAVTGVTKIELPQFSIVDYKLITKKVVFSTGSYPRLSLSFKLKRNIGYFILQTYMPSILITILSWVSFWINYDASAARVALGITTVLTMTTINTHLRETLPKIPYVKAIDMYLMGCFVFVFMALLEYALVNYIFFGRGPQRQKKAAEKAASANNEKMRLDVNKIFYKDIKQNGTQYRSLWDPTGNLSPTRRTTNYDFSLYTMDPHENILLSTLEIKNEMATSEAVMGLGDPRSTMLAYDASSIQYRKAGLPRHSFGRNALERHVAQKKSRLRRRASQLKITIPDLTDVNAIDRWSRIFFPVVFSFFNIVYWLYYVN
T1 sequence (P18507 40-475 partner): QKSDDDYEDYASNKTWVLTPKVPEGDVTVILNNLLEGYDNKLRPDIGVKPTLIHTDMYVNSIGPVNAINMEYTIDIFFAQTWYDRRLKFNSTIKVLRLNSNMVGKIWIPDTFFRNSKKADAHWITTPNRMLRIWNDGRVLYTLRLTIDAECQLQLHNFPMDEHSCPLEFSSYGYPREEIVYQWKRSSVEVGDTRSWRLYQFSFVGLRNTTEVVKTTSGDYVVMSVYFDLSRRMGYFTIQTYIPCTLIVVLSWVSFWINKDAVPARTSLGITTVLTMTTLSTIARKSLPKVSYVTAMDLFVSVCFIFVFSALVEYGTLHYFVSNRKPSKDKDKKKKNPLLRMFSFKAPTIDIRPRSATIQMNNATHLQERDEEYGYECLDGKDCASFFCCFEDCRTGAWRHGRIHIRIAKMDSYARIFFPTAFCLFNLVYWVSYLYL
Excerpt: (§1) Cellular electrophysiology was used to measure the pharmacology properties of the GABA receptor modulators. The GABAA channels are expressed in stable cell lines described herein. The parental cell line used to express the human GABAA channels is the human embryonic kidney (HEK293) cell line expressing the Tetracycline repressor protein to support inducible expression of the target proteins.
(§2) For the GABAA α4β3δ cell line, the α4 and β3 subunits are under control of tetracycline inducible expression system, while the δ subunit is constitutively expressed. For the GABAA α1β2γ2 cell line, the α1 and β2 subunits are under control of tetracycline inducible expression system, whist the γ2 subunit is constitutively expressed.
(§3) Assessment of the compounds against GABAA α1β2γ2 and GABAA α4β3δ was performed using the SyncroPatch automated platform in positive allosteric modulator (PAM) mode. Six concentrations of 20 nM, 62 nM, 185 nM, 555 nM, 1667 nM and 5000 nM were tested across the plate, with a single concentration of compound per well. A minimum of 3 cells were obtained per each concentration of a compound.
(§4) Automated patch clamp-recordings were performed using the SyncroPatch 384PE. The voltage protocol generation and data collection were performed with PatchController384 V1.6.6 and Data Controller V1.6.0. A steady state voltage pulse at −80 mV was applied during the assay.
(§5) The stacked addition protocol was used, in which γ-aminobutyric acid (GABA) was rapidly applied and then washed off from the cell. To test for positive allosteric modulator activity (PAM), first the agonist GABA EC20 (EC20: 10 μM for GABAA α4β3δ channel and 14 μM GABA for the GABAA α1β2γ2 channel) was applied twice (with wash steps in-between) as a control and to show activation reproducibility, followed by a 1-2 minutes pre-incubation of the tested compound and then re-application of GABA EC20 in the presence of a testing compound. Finally, following a further wash step, maximum GABA (10 mM) was applied.
(§6) An Allopregnanolone concentration response was tested as the control PAM on the compound plates. The fold increase was generated using the following equation, (Icomp/Icontrol)−1, where Icomp is the current amplitude in the presence of the compound and Icontrol is the current amplitude in the presence of GABA EC20 alone. This builds an EC50 concentration-response curve, where 0 represents no PAM activity and >0 represents PAM activity.
(§7) A maximum % Emax for each compound is generated using the following equation, (IMaxComp/IAveMaxAllo)*100, where IMaxcomp is the individual maximum fold increase in current for each compound and IAveMaxAllo is the average maximum fold increase generated in the presence of Allopregnanolone. The resultant % Emax values are then averaged. The compound and Allopregnanolone values were obtained from separate cells which were tested in the same compound run. Two GABAA subtypes were tested against each of the compounds as well as the positive control, Allopregnanolone.

GABAA α4β3δ = target: T2, GABAA α4β3δ (Homo sapiens, UniProt P28472+P48169); assay: Automated patch clamp electrophysiology (SyncroPatch), PAM mode, GABAA α4β3δ cell line; format: cell-based; details: for Emax: maximum fold increase in current relative to Allopregnanolone, read-out: GABAA α4β3δ PAM % Emax (to Allo)
T2 construct: expressed in transfected cells; host or cells: HEK293 expressing the Tetracycline repressor protein
T2 sequence (P48169 36-554): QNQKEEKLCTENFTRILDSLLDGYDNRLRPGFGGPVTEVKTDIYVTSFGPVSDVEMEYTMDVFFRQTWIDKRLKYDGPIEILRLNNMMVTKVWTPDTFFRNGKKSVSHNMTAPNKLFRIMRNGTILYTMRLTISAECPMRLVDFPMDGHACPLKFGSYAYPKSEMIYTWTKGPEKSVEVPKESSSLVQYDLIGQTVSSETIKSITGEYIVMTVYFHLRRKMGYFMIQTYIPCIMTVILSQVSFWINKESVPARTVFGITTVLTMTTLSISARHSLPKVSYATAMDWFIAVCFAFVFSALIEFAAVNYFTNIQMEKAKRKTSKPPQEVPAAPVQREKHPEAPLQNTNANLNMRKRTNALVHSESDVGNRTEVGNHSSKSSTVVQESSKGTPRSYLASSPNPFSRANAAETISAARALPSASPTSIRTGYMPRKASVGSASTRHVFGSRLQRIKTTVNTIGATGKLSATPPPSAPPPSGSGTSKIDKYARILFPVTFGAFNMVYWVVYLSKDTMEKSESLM
T2 sequence (P28472 26-473): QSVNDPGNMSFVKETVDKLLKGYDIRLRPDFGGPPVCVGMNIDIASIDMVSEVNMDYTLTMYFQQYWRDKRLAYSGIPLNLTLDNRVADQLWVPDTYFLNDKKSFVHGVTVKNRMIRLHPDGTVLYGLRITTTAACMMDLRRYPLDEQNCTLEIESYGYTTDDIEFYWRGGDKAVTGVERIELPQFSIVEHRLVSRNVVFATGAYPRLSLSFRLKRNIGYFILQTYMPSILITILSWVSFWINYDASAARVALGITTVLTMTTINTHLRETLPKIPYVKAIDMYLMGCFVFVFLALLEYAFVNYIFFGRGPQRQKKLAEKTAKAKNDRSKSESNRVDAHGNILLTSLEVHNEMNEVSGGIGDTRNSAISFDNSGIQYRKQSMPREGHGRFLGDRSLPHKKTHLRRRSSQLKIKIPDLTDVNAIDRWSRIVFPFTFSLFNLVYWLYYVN
T2 sequence (O14764 17-452 partner limits assumed): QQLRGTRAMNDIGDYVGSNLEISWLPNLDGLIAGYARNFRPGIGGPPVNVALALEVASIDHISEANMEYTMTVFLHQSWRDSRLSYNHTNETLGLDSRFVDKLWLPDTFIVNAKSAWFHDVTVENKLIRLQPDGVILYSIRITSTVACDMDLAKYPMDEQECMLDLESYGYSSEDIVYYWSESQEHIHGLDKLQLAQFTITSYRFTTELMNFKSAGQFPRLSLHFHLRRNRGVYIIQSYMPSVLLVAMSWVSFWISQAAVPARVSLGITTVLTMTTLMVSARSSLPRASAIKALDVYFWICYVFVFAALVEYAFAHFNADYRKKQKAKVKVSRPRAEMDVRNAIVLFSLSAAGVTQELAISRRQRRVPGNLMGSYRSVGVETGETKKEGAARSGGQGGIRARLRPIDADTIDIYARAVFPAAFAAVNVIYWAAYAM
Excerpt: as §1, §2, §3, §4, §5, §6, §7

[1] = PAM mode, HEK293 cells expressing human GABAA α1β2γ2, GABA EC20 14 μM, read-out: GABAA α1β2γ2 PAM EC50
[2] = PAM mode, HEK293 cells expressing human GABAA α4β3δ, GABA EC20 10 μM, read-out: GABAA α4β3δ PAM EC50

Structure (SMILES)	pEC50 (GABAA α1β2γ2; [1])	Emax (GABAA α1β2γ2; PAM mode)	pEC50 (GABAA α4β3δ; [2])	Emax (GABAA α4β3δ; PAM mode, GABA EC20 10 μM)	pEC50 (GABAA α1β2γ2)	pEC50 (GABAA α4β3δ)
CC1([C@H]2CC[C@H]3[C@@H]4CC[C@H]5C[C@H](O)CC[C@]5(C)[C@H]4CC[C@]23C)COC1 [Example 5, (3R,5S,8R,9S,10S,13S,14S,17S)-10,13-dimethyl-17-(3-methyloxetan-3-yl)-2,3,4,5,6,7,8,9,11,12,14,15,16,17-tetradecahydro-1H-cyclopenta[a]phenanthren-3-ol]	6.00 to 6.30	50 to 90%	< 5.82	< 50%	–	–
CC1([C@H]2CC[C@H]3[C@@H]4CC[C@@H]5C[C@](C)(O)CC[C@@H]5[C@H]4CC[C@]23C)CCOC1 (stereo partly drawn) [Example 7, (3R,5R,8R,9R,10S,13S,14S,17S)-3,13-dimethyl-17-(3-methyltetrahydrofuran-3-yl)-2,4,5,6,7,8,9,10,11,12,14,15,16,17-tetradecahydro-1H-cyclopenta[a]phenanthren-3-ol]	6.00 to 6.30	> 90%	6.00 to 6.30	> 90%	–	–
CC1([C@H]2CC[C@H]3[C@@H]4CC[C@@H]5C[C@H](O)CC[C@]5(C)[C@H]4CC[C@]23C)COC1 [Example 6, (3R,5R,8R,9S,10S,13S,14S,17S)-10,13-dimethyl-17-(3-methyloxetan-3-yl)-2,3,4,5,6,7,8,9,11,12,14,15,16,17-tetradecahydro-1H-cyclopenta[a]phenanthren-3-ol]	> 6.30	> 90%	5.82 to 6.00	> 90%	–	–
C[C@@]1(O)CC[C@H]2[C@H](CC[C@@H]3[C@@H]2CC[C@]2(C)[C@@H](C4(C#N)COC4)CC[C@@H]32)C1 [Example 18, 3-((3R,5R,8R,9R,10S,13S,14S,17S)-3-hydroxy-3,13-dimethyl-2,4,5,6,7,8,9,10,11,12,14,15,16,17-tetradecahydro-1H-cyclopenta[a]phenanthren-17-yl)oxetane-3-carbonitrile]	> 6.30	> 90%	> 6.30	50 to 90%	–	–
C[C@@]1(O)CC[C@H]2[C@H](CC[C@@H]3[C@@H]2CC[C@]2(C)[C@@H](C4(C(F)F)COC4)CC[C@@H]32)C1 [Example 19, (3R,5R,8R,9R,10S,13S,14S,17S)-17-[3-(difluoromethyl)oxetan-3-yl]-3,13-dimethyl-2,4,5,6,7,8,9,10,11,12,14,15,16,17-tetradecahydro-1H-cyclopenta[a]phenanthren-3-ol]	> 6.30	> 90%	> 6.30	> 90%	–	–
C[C@@]1(O)CC[C@H]2[C@H](CC[C@@H]3[C@@H]2CC[C@]2(C)[C@@H](C4COC4)CC[C@@H]32)C1 [Example 23, (3R,5R,8R,9R,10S,13S,14S,17R)-17-(oxetan-3-yl)-3,13-dimethyl-2,4,5,6,7,8,9,10,11,12,14,15,16,17-tetradecahydro-1H-cyclopenta[a]phenanthren-3-ol]	> 6.30	50 to 90%	> 6.30	50 to 90%	–	–
C[C@@]1(O)CC[C@H]2[C@H](CC[C@@H]3[C@@H]2CC[C@]2(C)[C@@H](C4(CC(F)(F)F)COC4)CC[C@@H]32)C1 [Example 20, (3R,5R,8R,9R,10S,13S,14S,17S)-3,13-dimethyl-17-(3-(2,2,2-trifluoroethyl)oxetan-3-yl)-2,4,5,6,7,8,9,10,11,12,14,15,16,17-tetradecahydro-1H-cyclopenta[a]phenanthren-3-ol]	> 6.30	> 90%	> 6.30	> 90%	–	–
CC1([C@H]2CC[C@H]3[C@@H]4CC[C@H]5C[C@H](O)CC[C@]5(C)[C@H]4CC[C@]23C)CCO1 (stereo partly drawn) [Example 3, (3R,5S,8R,9S,10S,13S,14S,17S)-10,13-dimethyl-17-(2-methyloxetan-2-yl)-2,3,4,5,6,7,8,9,11,12,14,15,16,17-tetradecahydro-1H-cyclopenta[a]phenanthren-3-ol]	5.82 to 6.00	< 50%	5.82 to 6.00	< 50%	–	–
CC1([C@H]2CC[C@H]3[C@@H]4CC[C@@H]5C[C@](C)(O)CC[C@@H]5[C@H]4CC[C@]23C)COC1 [Example 2, (3R,5R,8R,9R,10S,13S,14S,17S)-3,13-dimethyl-17-(3-methyloxetan-3-yl)-2,4,5,6,7,8,9,10,11,12,14,15,16,17-tetradecahydro-1H-cyclopenta[a]phenanthren-3-ol]	5.82 to 6.00	> 90%	> 6.30	> 90%	–	–
C[C@@]1(O)CC[C@H]2[C@H](CC[C@@H]3[C@@H]2CC[C@]2(C)[C@@H](C4(CC5CC5)COC4)CC[C@@H]32)C1 [Example 9, (3R,5R,8R,9R,10S,13S,14S,17S)-17-[3-(cyclopropylmethyl)oxetan-3-yl]-3,13-dimethyl-2,4,5,6,7,8,9,10,11,12,14,15,16,17-tetradecahydro-1H-cyclopenta[a]phenanthren-3-ol]	> 6.30	50 to 90%	< 5.82	> 90%	–	–
CC1([C@H]2CC[C@H]3[C@@H]4CC[C@H]5C[C@](C)(O)CC[C@]5(C)[C@H]4CC[C@]23C)COC1 [Example 1, (3R,5S,8R,9S,10S,13S,14S,17S)-3,10,13-trimethyl-17-(3-methyloxetan-3-yl)-1,2,4,5,6,7,8,9,11,12,14,15,16,17-tetradecahydrocyclopenta[a]phenanthren-3-ol]	6.00 to 6.30	< 50%	< 5.82	< 50%	–	–
C[C@@]1(O)CC[C@H]2[C@H](CC[C@@H]3[C@@H]2CC[C@]2(C)[C@@H](C4(CF)COC4)CC[C@@H]32)C1 [Example 14, (3R,5R,8R,9R,10S,13S,14S,17S)-17-[3-(fluoromethyl)oxetan-3-yl]-3,13-dimethyl-2,4,5,6,7,8,9,10,11,12,14,15,16,17-tetradecahydro-1H-cyclopenta[a]phenanthren-3-ol]	5.82 to 6.00	> 90%	6.00 to 6.30	50 to 90%	–	–
CC(=O)[C@H]1CC[C@H]2[C@@H]3CC[C@H]4C[C@H](O)CC[C@]4(C)[C@H]3CC[C@]12C [allopregnanolone, 5α-pregnane-3α-ol-20-one, reference compound]	–	> 90%	–	> 90%	> 6.30	> 6.30
C[C@@]1(O)CC[C@H]2[C@H](CC[C@@H]3[C@@H]2CC[C@]2(C)[C@@H](C4(CC#N)COC4)CC[C@@H]32)C1 [Example 13, 2-[3-[(3R,5R,8R,9R,10S,13S,14S,17S)-3-hydroxy-3,13-dimethyl-2,4,5,6,7,8,9,10,11,12,14,15,16,17-tetradecahydro-1H-cyclopenta[a]phenanthren-17-yl]oxetan-3-yl]acetonitrile]	5.82 to 6.00	> 90%	5.82 to 6.00	< 50%	–	–
C[C@@]1(O)CC[C@H]2[C@H](CC[C@@H]3[C@@H]2CC[C@]2(C)[C@@H](C4(F)COC4)CC[C@@H]32)C1 [Example 10, (3R,5R,8R,9R,10S,13S,14S,17S)-17-(3-fluorooxetan-3-yl)-3,13-dimethyl-2,4,5,6,7,8,9,10,11,12,14,15,16,17-tetradecahydro-1H-cyclopenta[a]phenanthren-3-ol]	> 6.30	> 90%	> 6.30	> 90%	–	–
